For four compounds, inhibition in vivo, CLH and half-life results are on record in ChEMBL document CHEMBL4411271, “New Generation of Selective Androgen Receptor Degraders: Our Initial Design, Synthesis, and Biological Evaluation of New Compounds with Enzalutamide-Resistant Prostate Cancer Activity” (J Med Chem, 2019).

The subject of one data set is MR49F. Description: animal or person. Conditions: Homo sapiens, po, 336 h, read-out: TGI. It counts as functional.
For data set [1] the following is noted: mouse, microsomes, 50 µM.
The nature of a further data set: in vitro. As to conditions: mouse, microsomes.

Description for MR49F: Antitumor activity against human MR49F cells xenografted in NSG cells assessed as tumor growth inhibition at 100 mg/kg/day, po for 14 days and measured twice weekly relative to control
Description for in vitro: Half life in mouse liver microsomes at 50 uM in presence of cofactors for phase 1 and 2 metabolism

As to `C[C@](O)(Cn1ccc2c(F)cccc21)C(=O)Nc1ccc(C#N)c(Cl)c1`, the inhibition in vivo at 100 mg/kg/day in the data set with MR49F is 40 to 60%.

With `C[C@](O)(COc1ccc(C#N)cc1)C(=O)Nc1ccc(C#N)c(C(F)(F)F)c1` [ENOBOSARM], the CLH in data set [1] amounted to 1.4 mL/min/mg.

As to `C[C@](O)(Cn1ccc2cc(F)c(-c3ccccc3)cc21)C(=O)Nc1ccc(C#N)c(Cl)c1`, the inhibition in vivo at 100 mg/kg/day in the data set on MR49F lay within 40 to 60%.

For `C[C@](O)(CN1CCc2cc(F)ccc21)C(=O)Nc1ccc(C#N)c(Cl)c1`, the half-life at 50 µM in “in vitro” is 9.16 min.

Broadly, the half-life is the time needed for the level to fall by half in the phase considered. Low readings indicate rapid decline, high ones slow decline.
